Data: ChEMBL document CHEMBL4725353, “Discovery of Pyrido[2,3-b]indole Derivatives with Gram-Negative Activity Targeting Both DNA Gyrase and Topoisomerase IV” (J Med Chem, 2020)
Converted amounts (≈) assume the structure as drawn.

What was measured:
[1] = Distribution coefficient between octanol and buffer, log D of the compound in pH 7.4 buffer by CAMDIS assay; format: physicochemical
Escherichia coli [2] = experiment: Antibacterial activity against Escherichia coli ATCC 35218 assessed as reduction in microbial growth preincubated for 20 to 24 hrs followed by subculture in absence of compound and measured on day 4 CLSI based broth microdilution susceptibility method; format: functional; details: time hrs 20-24
Escherichia coli [3] = experiment: Antibacterial activity against Escherichia coli ATCC BAA-2340 assessed as reduction in microbial growth preincubated for 20 to 24 hrs followed by subculture in absence of compound and measured on day 4 CLSI based broth microdilution susceptibility method; format: functional; details: time hrs 20-24
Klebsiella pneumoniae [4] = experiment: Antibacterial activity against Klebsiella pneumoniae ATCC 10031 assessed as reduction in microbial growth preincubated for 20 to 24 hrs followed by subculture in absence of compound and measured on day 4 CLSI based broth microdilution susceptibility method; format: functional; details: time hrs 20-24
Klebsiella pneumoniae [5] = experiment: Antibacterial activity against Klebsiella pneumoniae ATCC 700603 assessed as reduction in microbial growth preincubated for 20 to 24 hrs followed by subculture in absence of compound and measured on day 4 CLSI based broth microdilution susceptibility method; format: functional; details: time hrs 20-24
Klebsiella pneumoniae [6] = experiment: Antibacterial activity against Klebsiella pneumoniae ATCC BAA-2146 assessed as reduction in microbial growth preincubated for 20 to 24 hrs followed by subculture in absence of compound and measured on day 4 CLSI based broth microdilution susceptibility method; format: functional; details: time hrs 20-24
Acinetobacter baumannii [7] = experiment: Antibacterial activity against Acinetobacter baumannii ATCC 19606 assessed as reduction in microbial growth preincubated for 20 to 24 hrs followed by subculture in absence of compound and measured on day 4 CLSI based broth microdilution susceptibility method; format: functional; details: time hrs 20-24
Acinetobacter baumannii [8] = experiment: Antibacterial activity against Acinetobacter baumannii ATCC 51432 assessed as reduction in microbial growth preincubated for 20 to 24 hrs followed by subculture in absence of compound and measured on day 4 CLSI based broth microdilution susceptibility method; format: functional; details: time hrs 20-24
Acinetobacter baumannii [9] = experiment: Antibacterial activity against Acinetobacter baumannii ATCC BAA-747 assessed as reduction in microbial growth preincubated for 20 to 24 hrs followed by subculture in absence of compound and measured on day 4 CLSI based broth microdilution susceptibility method; format: functional; details: time hrs 20-24
Pseudomonas aeruginosa [10] = experiment: Antibacterial activity against Pseudomonas aeruginosa PAO1 assessed as reduction in microbial growth preincubated for 20 to 24 hrs followed by subculture in absence of compound and measured on day 4 CLSI based broth microdilution susceptibility method; format: functional; details: time hrs 20-24
Pseudomonas aeruginosa [11] = experiment: Antibacterial activity against Pseudomonas aeruginosa ATCC 27853 assessed as reduction in microbial growth preincubated for 20 to 24 hrs followed by subculture in absence of compound and measured on day 4 CLSI based broth microdilution susceptibility method; format: functional; details: time hrs 20-24
Pseudomonas aeruginosa [12] = experiment: Antibacterial activity against Pseudomonas aeruginosa ATCC BAA-2113 assessed as reduction in microbial growth preincubated for 20 to 24 hrs followed by subculture in absence of compound and measured on day 4 CLSI based broth microdilution susceptibility method; format: functional; details: time hrs 20-24
physchem [13] = experiment: physchem
Description: Ionization constant (acid), pKa of the compound by photometric titration assay

Escherichia coli [14] = experiment: microbe, parasite or virus in culture; details: ATCC 29213
Description: Antibacterial activity against Escherichia coli ATCC 29213 assessed as reduction in microbial growth preincubated for 20 to 24 hrs followed by subculture in absence of compound and measured on day 4 CLSI based broth microdilution susceptibility method

Escherichia coli [15] = experiment: microbe, parasite or virus in culture; details: ATCC 25922
Description: Antibacterial activity against Escherichia coli ATCC 25922 assessed as reduction in microbial growth preincubated for 20 to 24 hrs followed by subculture in absence of compound and measured on day 4 CLSI based broth microdilution susceptibility method

[16] = Intrinsic clearance in mouse hepatocytes by LC/MS-MS analysis; format: ADME, cell-based, Hepatocyte
[17] = Protein binding in plasma (unknown origin) assessed as unbound fraction at 1 uM after 5 hrs by LC/MS-MS analysis; format: ADME, cell-free
in vitro = details: mouse, liver microsomes
Description: Intrinsic clearance in mouse liver microsomes preincubated for 10 mins followed by NADPH regenerating system addition and measured up to 30 mins by LC/MS-MS analysis

physchem [18] = details: PBS, pH 6.5
Description: Solubility of compound in PBS at pH 6.5 incubated for over night by HPLC-UV based lyophilization solubility assay

[19] = Dissociation constant, pKa of compound by photometric titration assay; format: physicochemical

| logD [1] | MIC (Escherichia coli [2]) | MIC (Escherichia coli [3]) | MIC (Klebsiella pneumoniae [4]) | MIC (Klebsiella pneumoniae [5]) | MIC (Klebsiella pneumoniae [6]) | MIC (Acinetobacter baumannii [7]) | MIC (Acinetobacter baumannii [8]) | MIC (Acinetobacter baumannii [9]) | MIC (Pseudomonas aeruginosa [10]) | MIC (Pseudomonas aeruginosa [11]) | MIC (Pseudomonas aeruginosa [12]) | pKa (physchem [13]) | MIC (Escherichia coli [14]) | MIC (Escherichia coli [15]) | CLH [16] | fraction unbound at 5 h, 1 µM [17] | CLint scaled at 0.5 h (in vitro) | solubility (physchem [18]) | pKa [19] | Compound |
| --- | --- | --- | --- | --- | --- | --- | --- | --- | --- | --- | --- | --- | --- | --- | --- | --- | --- | --- | --- | --- |
|  |  |  |  |  |  |  |  |  |  |  |  | 7.62 |  | 2 µg/mL (≈ 4.56 µM) | 74.6 µg/mL | 0.044 | 70.3 mL/min/kg | 34 µg/mL (≈ 77.5 µM) |  | CCNc1cc(F)cc2c1[nH]c1ncc(-c3cncc(C#N)c3)c(-n3ncc4c3CNC4)c12 |
|  |  |  |  |  |  |  |  |  |  |  |  | 6.57 |  | 1 µg/mL (≈ 1.97 µM) |  | 0.012 | 73.2 mL/min/kg | < 0.3 µg/mL |  | CCNc1cc(F)cc2c1[nH]c1ncc(-c3cncc(C#N)c3)c(-n3nc(C(F)(F)F)c4c3CNC4)c12 |
|  |  |  |  |  |  |  |  |  |  |  |  |  |  | 1 µg/mL (≈ 1.95 µM) |  | 0.016 | 77.4 mL/min/kg | 4 µg/mL (≈ 7.81 µM) |  | CCNc1cc(F)cc2c1[nH]c1ncc(-c3cnc(OC)nc3)c(-n3nc(C(F)(F)F)c4c3CNC4)c12 |
| 3.63 | 1.45 µg/mL | 2.91 µg/mL | 0.73 µg/mL | 1.45 µg/mL | 5.82 µg/mL | 0.73 µg/mL | > 23.3 µg/mL | 1.45 µg/mL | 2 µg/mL | 5.82 µg/mL | 1.45 µg/mL |  | < 0.016 µg/mL | 0.5 µg/mL (≈ 1.07 µM) |  |  | 61.8 mL/min/kg | < 0.3 µg/mL |  | CCNc1cc(F)cc2c1[nH]c1ncc(-c3cncc(C#N)c3)c(-n3ccc(C(F)(F)F)n3)c12 |

Continued, compound first:

| Compound | logD [1] | MIC (Escherichia coli [2]) | MIC (Escherichia coli [3]) | MIC (Klebsiella pneumoniae [4]) | MIC (Klebsiella pneumoniae [5]) | MIC (Klebsiella pneumoniae [6]) | MIC (Acinetobacter baumannii [7]) | MIC (Acinetobacter baumannii [8]) | MIC (Acinetobacter baumannii [9]) | MIC (Pseudomonas aeruginosa [10]) | MIC (Pseudomonas aeruginosa [11]) | MIC (Pseudomonas aeruginosa [12]) | pKa (physchem [13]) | MIC (Escherichia coli [14]) | MIC (Escherichia coli [15]) | CLH [16] | fraction unbound at 5 h, 1 µM [17] | CLint scaled at 0.5 h (in vitro) | solubility (physchem [18]) | pKa [19] |
| --- | --- | --- | --- | --- | --- | --- | --- | --- | --- | --- | --- | --- | --- | --- | --- | --- | --- | --- | --- | --- |
| CCNc1cc(F)cc2c1[nH]c1ncc(-c3cncc(N)c3)c(-n3ccc(C(F)(F)F)n3)c12 | 3.44 | 2.85 µg/mL | 2.85 µg/mL | 0.178 µg/mL | 1.42 µg/mL | 5.7 µg/mL | 1.42 µg/mL | 5.7 µg/mL | 2.85 µg/mL | 2 µg/mL | 2.85 µg/mL | 1.42 µg/mL | 4.84 | < 0.016 µg/mL | 0.25 µg/mL (≈ 0.549 µM) |  |  |  |  |  |
| CCNc1cc(F)cc2c1[nH]c1ncc(-c3cncc(C(=O)O)c3)c(-n3ccc(C(F)(F)F)n3)c12 | 1.9 |  |  |  |  |  |  |  |  |  |  |  |  | 1 µg/mL (≈ 2.06 µM) | > 16 µg/mL |  |  |  |  | 3.57 |
| CCNc1cc(F)cc2c1[nH]c1ncc(-c3cncnc3)c(-n3ccc(C(F)(F)F)n3)c12 | 3.48 | 0.34 µg/mL | 1.38 µg/mL | 0.09 µg/mL | 0.69 µg/mL | 1.38 µg/mL | 0.17 µg/mL | 1.38 µg/mL | 0.69 µg/mL | 2 µg/mL | 1.38 µg/mL | 0.34 µg/mL |  | < 0.016 µg/mL | 0.25 µg/mL (≈ 0.566 µM) |  |  | 76.1 mL/min/kg | < 0.2 µg/mL |  |
| CCNc1cc(F)cc2c1[nH]c1ncc(-c3cnc4ccnn4c3)c(-n3ccc(C(F)(F)F)n3)c12 | 3.54 | 0.75 µg/mL | 0.75 µg/mL | 0.38 µg/mL | 0.75 µg/mL | 1.5 µg/mL | 0.38 µg/mL | 1.5 µg/mL | 0.75 µg/mL | 2 µg/mL | 1.5 µg/mL | 0.75 µg/mL |  | 0.31 µg/mL (≈ 0.645 µM) | 0.25 µg/mL (≈ 0.52 µM) |  |  |  |  |  |
| CCNc1cc(F)cc2c1[nH]c1ncc(-c3cncc(CO)c3)c(-n3ccc(C(F)(F)F)n3)c12 | 3.56 | 1.47 µg/mL | 1.47 µg/mL | 0.183 µg/mL | 1.47 µg/mL | > 23.5 µg/mL | 73 µg/mL | > 23.5 µg/mL | > 23.5 µg/mL | 4 µg/mL | > 23.5 µg/mL | 1.47 µg/mL |  | < 0.016 µg/mL | 0.5 µg/mL (≈ 1.06 µM) |  |  |  |  |  |
| CCNc1cc(F)cc2c1[nH]c1ncc(-c3cncc(CC(=O)O)c3)c(-n3ccc(C(F)(F)F)n3)c12 | 2.02 |  |  |  |  |  |  |  |  |  |  |  |  | 0.25 µg/mL (≈ 0.502 µM) | > 8 µg/mL |  |  |  |  | 3.51 |
| CCNc1cc(F)cc2c1[nH]c1ncc(-c3cncc(CN)c3)c(-n3ccc(C(F)(F)F)n3)c12 | 2.94 |  |  |  |  |  |  |  |  |  |  |  | 8.62 | < 0.25 µg/mL | 1 µg/mL (≈ 2.13 µM) |  |  |  |  |  |
| CCNc1cc(F)cc2c1[nH]c1ncc(-c3cncc(C(N)=O)c3)c(-n3ccc(C(F)(F)F)n3)c12 | 3.25 | 0.76 µg/mL | 0.76 µg/mL | 0.09 µg/mL | 0.76 µg/mL | 3.02 µg/mL | 0.76 µg/mL | 3.02 µg/mL | 3.02 µg/mL | 2 µg/mL | 0.76 µg/mL | 0.76 µg/mL |  | < 0.016 µg/mL | 0.5 µg/mL (≈ 1.03 µM) |  |  |  |  |  |
